Laboratory results reported in patent US6933272B1 (priority 1998, dated 2005).
Entries after “also recorded” stand apart in the source; their conditions may differ. Like-named read-outs stand apart in the source and are kept apart here.

Experiments:
[1] = target: insulin receptor β-subunit associated tyrosine kinase activity (Homo sapiens, UniProt P06213); assay: Protein tyrosine kinase (PTK) assay, 32P incorporation into FYF peptide; assay type: biochemical; conditions: basal, absence of insulin
insulin receptor β-subunit associated tyrosine kinase activity, sequence (P06213 28-758 limits assumed): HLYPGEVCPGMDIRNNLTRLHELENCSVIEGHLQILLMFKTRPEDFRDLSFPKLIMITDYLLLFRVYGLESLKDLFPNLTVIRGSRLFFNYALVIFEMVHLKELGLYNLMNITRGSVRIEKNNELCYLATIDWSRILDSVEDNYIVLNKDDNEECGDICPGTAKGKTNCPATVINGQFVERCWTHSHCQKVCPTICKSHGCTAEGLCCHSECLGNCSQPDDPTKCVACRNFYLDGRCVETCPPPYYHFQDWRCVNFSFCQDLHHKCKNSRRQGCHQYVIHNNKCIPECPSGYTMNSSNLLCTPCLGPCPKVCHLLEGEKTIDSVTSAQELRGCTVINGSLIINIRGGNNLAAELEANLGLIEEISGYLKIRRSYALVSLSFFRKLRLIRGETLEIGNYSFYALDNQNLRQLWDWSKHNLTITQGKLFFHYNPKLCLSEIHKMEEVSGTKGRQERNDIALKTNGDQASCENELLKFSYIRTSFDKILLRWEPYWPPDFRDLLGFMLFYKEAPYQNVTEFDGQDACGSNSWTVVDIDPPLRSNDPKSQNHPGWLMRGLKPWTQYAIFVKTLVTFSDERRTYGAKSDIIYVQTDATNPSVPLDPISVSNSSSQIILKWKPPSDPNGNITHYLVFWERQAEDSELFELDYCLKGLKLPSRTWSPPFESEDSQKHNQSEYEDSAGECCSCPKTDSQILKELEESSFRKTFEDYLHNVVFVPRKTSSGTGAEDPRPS
Experimental: Protein tyrosine kinase activity was determined using a modification of the method of N. Konstantopoulos (22).
The reaction was allowed to proceed for 20 minutes at 30° C. before it was terminated by the addition of 12.5 μL of 7.5 M guanidine hydrochloride. An aliquot (10 μL) of the reaction mixture was then spotted onto a Whatman 81 phosphocellulose paper (15 mm×15 mm), washed three times (2 min per wash) in about 50 mL of 30% acetic acid, 0.05% orthophosphoric acid then finally, with one wash in about 200 mL of water. The papers were then rinsed briefly (15 sec) in 95% ethanol, dried, suspended in 2.5 mL of scintillation fluid (Beckman) and counted for radioactivity in a Beckman β-counter.

3T3L1 adipocyte cells = assay: Glucose transport (3H-deoxyglucose uptake) in 3T3L1 adipocyte cells; assay type: cell-based, mouse
Experimental: Glucose transport was determined using a modification of the method of S. J. Isakoff et at. (23). The assay involved measuring the effect of compounds on the uptake of ^3H-deoxyglucose into 3T3L1 adipocyte cells.
The cell line, 3T3-L1, derived from mouse embryo fibroblasts, was grown in 250 mL tissue culture flasks containing 15 mL medium made up of DMEM (Dulbecco's modified Eagle's medium containing glutamine, 2 mM; sodium bicarbonate, 30 mM; penicillin 71.5 mg/litre; streptomycin, 152.5 mg/litre) supplemented with 10% foetal calf serum (FCS), pH 7.4. Cells were maintained in a humidified incubator at 37° C. in a 5% CO2 environment. The medium was changed every 3 days and the cells were split when they were about 70-80% confluent.
3T3-L1 fibroblast cells from one tissue culture flask were suspended in 50 mL of DMEM media containing 10% FCS and 0.5 mL of this suspension were seeded into each well of two 48-well tissue culture plates. The differentiation of the cells was initiated when the fibroblast cells were fully confluent. Routinely, differentiation was induced on cells that had been growing in tissue culture plates for 4-5 days. […] The cells were subsequently maintained with DMEM medium containing 10% FCS.
One day prior to the glucose transport assay, cell medium was replaced with DMEM containing 10% charcoal-treated foetal calf serum (CTFCS). On the day of the assay, the medium was aspirated and each well was washed with 1 mL of 25 mM Hepes, pH 7.4 containing 0.9% NaCl (NaCl-HEPES). […] Ten microlitres of NaCl-HEPES containing 3 mM 2-deoxy-D-glucose and 0.1 μCi 2-deoxy-D-[1-^3H]glucose were then added. Following a 10 min incubation at 37° C., the medium was aspirated off and the wells rapidly washed three times with 1 mL of ice-cold 50 mM phosphate, pH 7.5 containing 150 mM NaCl (PBS) and 10 mM glucose. Two hundred microlitres of 3% Triton X-100 was then added to each well and left to incubate for a minimum of 10 minutes. One hundred microlitres of the solubilised cells was then added to 2.5 mL of liquid scintillation fluid and counted for radioactivity in a Beckman β-counter.

insulin receptor [2] = target: T1, insulin receptor (Homo sapiens, UniProt P06213); assay: Assays of insulin action (several biological assays, classification agonist/antagonist)
Target sequence in this assay (P06213 with tags, fused parts or gaps): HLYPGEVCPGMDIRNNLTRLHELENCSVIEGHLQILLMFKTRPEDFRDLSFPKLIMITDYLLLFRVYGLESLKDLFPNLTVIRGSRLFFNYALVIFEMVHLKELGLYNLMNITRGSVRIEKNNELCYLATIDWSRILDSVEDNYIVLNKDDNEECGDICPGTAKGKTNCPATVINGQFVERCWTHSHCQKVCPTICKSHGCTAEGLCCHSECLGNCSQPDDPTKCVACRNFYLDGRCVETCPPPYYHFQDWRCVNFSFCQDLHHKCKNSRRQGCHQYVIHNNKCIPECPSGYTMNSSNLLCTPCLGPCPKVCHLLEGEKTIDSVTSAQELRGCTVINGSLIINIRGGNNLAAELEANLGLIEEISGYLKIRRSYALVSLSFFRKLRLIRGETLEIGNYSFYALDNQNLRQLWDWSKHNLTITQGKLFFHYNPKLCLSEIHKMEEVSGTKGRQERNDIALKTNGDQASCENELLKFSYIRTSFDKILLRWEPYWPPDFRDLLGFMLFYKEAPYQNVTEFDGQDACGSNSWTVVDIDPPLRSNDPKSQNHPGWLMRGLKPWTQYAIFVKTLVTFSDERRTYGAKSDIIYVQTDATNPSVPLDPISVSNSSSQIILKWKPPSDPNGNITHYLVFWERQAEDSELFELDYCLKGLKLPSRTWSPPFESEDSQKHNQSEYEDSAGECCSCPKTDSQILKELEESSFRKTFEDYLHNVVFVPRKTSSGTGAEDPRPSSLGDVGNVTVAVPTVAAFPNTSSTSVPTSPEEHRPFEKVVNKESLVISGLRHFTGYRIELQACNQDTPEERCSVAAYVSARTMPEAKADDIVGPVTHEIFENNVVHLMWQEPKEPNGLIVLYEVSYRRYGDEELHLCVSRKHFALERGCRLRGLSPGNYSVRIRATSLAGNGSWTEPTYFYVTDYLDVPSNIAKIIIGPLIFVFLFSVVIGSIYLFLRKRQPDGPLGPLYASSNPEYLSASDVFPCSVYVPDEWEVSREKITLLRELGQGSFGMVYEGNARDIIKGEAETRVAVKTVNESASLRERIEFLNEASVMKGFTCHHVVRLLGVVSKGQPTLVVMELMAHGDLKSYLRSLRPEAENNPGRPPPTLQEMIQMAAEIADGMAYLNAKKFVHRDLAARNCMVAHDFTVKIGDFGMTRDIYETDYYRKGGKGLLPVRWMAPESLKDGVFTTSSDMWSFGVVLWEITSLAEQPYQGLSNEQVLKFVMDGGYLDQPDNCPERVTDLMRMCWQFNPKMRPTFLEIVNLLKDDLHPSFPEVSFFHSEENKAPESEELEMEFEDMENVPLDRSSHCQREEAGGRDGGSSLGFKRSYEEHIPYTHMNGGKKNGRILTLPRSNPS

IGF-1 receptors = target: T2, IGF-1 receptors (Cricetulus griseus, UniProt A0A8C2N2R2); assay: 125I IGF-1 binding to WGA purified receptor preparations from CHO wild-type cells
T2 construct: have high endogenous populations of IGF-1 receptors; endogenous in cells; host or cells: CHO wild-type cells, solubilised, WGA purified
T2 sequence (A0A8C2N2R2 31-1371): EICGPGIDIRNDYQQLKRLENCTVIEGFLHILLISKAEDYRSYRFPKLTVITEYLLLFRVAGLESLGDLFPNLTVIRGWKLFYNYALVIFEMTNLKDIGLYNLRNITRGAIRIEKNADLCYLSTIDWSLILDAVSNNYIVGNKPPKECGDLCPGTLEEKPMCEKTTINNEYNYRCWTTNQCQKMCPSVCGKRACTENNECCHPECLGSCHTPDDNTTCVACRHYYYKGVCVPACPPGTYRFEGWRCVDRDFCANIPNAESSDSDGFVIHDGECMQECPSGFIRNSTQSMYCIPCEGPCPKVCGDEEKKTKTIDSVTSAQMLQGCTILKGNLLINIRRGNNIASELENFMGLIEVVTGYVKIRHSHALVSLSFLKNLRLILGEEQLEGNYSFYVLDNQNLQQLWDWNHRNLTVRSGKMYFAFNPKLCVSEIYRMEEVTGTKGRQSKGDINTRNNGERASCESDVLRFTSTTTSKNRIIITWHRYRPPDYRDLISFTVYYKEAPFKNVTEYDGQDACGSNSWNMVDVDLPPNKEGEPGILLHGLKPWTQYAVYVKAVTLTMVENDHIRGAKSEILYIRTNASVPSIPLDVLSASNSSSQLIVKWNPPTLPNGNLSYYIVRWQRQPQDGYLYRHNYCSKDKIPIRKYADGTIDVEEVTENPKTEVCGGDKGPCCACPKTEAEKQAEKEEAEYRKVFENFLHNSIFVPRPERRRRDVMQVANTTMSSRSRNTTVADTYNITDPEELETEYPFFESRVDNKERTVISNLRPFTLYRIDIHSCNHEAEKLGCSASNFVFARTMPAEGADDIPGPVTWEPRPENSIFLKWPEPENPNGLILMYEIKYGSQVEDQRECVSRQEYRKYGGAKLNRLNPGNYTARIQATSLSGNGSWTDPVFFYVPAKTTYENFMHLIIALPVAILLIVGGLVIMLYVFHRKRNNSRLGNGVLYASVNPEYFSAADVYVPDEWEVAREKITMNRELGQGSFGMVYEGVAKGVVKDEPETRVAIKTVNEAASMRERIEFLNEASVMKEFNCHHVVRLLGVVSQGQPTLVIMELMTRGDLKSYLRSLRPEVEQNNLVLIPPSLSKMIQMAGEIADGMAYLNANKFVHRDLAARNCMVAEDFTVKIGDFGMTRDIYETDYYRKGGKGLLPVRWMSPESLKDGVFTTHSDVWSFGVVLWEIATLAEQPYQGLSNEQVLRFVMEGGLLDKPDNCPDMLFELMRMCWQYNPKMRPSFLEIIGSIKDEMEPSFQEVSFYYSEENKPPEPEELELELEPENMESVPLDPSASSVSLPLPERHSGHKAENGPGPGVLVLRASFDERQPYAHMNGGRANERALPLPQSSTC

[3] = system: streptozotocin induced diabetic mice; assay: Blood glucose levels in streptozotocin induced diabetic mice; assay type: in vivo, mouse
Experimental: Six week old male CD-1 mice were injected intra peritoneally with a sterile solution of streptozotocin prepared in 100 mM citrate buffer, pH 4.65 at a dose of 200 mg/kg and an injection volume of 16.7 mL/kg. Mice were housed in a 12 h light/dark cycle and fed a normal chow diet ad libitum. Drinking water was supplemented with 5% sucrose for the first two days following streptozotocin injection before being replaced with tap water thereafter. After 4 days, blood was taken from the saphenous vein of the mice using the method of Hem, A et al. (26). Random non-fasting blood glucose levels were determined on venous blood using an esprit glucometer (Bayer). Mice with blood glucose levels of greater than 15 mmol/L were characterised as diabetic.
Blood glucose levels of mice were determined, followed by an intra peritoneal dose of IM compound dissolved in diluent (1.6% glycerin, 0. 25% m-cresol, pH 6.75). Mice were then bled periodically and whole blood glucose levels were determine using a one-touch esprit glucometer (Bayer).

IGF-1 receptor = IGF-1 receptor (Homo sapiens, UniProt P08069); assay: 125I IGF-1 binding to human placental plasma membranes (HPPM); parameters: from tissue; host or cells: human placenta, plasma membranes; conditions: HPPM
IGF-1 receptor, sequence (P08069 31-736 limits assumed): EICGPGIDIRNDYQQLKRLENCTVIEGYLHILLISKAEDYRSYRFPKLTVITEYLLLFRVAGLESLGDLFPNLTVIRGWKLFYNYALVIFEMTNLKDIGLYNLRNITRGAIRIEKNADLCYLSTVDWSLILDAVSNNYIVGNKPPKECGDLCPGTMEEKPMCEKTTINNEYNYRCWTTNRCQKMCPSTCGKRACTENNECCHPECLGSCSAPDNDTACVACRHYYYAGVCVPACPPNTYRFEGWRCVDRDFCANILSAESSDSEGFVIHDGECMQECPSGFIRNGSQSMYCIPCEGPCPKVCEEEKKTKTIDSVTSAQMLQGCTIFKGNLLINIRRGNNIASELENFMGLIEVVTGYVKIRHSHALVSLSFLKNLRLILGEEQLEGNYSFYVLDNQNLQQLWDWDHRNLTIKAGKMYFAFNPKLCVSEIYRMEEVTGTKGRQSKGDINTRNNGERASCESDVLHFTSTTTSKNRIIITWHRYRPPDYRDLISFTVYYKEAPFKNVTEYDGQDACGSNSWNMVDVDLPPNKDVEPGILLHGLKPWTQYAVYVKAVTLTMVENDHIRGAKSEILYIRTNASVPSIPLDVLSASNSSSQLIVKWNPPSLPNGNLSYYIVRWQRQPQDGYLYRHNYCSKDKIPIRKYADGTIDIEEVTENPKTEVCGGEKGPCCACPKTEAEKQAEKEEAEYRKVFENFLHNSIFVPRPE

insulin receptor [4] = target: T1, insulin receptor; assay: 125I insulin binding, insulin receptors from a number of sources; parameters: host or cells: several: placental membranes, CHO.T11 cells, WGA purified receptors
Experimental: Tubes were mixed and incubated for 16 h at 4° C. After the incubation, the tubes were placed on ice and 300 μL of a 1:5 suspension of 0.4% bovine-γ-globulin in 20% polyethyleneglycol 6000 (BDH chemicals) was added to each tube, mixed thoroughly and left to incubate for 30 min on ice. The tubes were then centrifuged (3,000 g) for 30 min at 4° C., the supernatant was aspirated off and the pellet counted for radioactivity. […] Inhibition constants were estimated by graphical analysis of displacement plots or calculated using the curve fitting programs EBDA and/or LIGAND.
Target sequence in this assay (P06213 28-758 limits assumed): as the sequence (P06213 28-758 limits assumed) above

CCc1cc(-c2ccc(F)cc2)c(O)cc1OCCCOc1ccc2c(=O)c3cc(C(=O)O)ccc3oc2c1CCC(=O)O [IM 140, 3-[4-[7-carboxy-9-oxo-3-[3-[2-ethyl-4-(4-fluorophenyl)-5-hydroxyphenoxy]propoxy]-9H-xanthene]]propanoic acid]
effect of compound alone on 32P incorporation into FYF peptide [1]: promotes the ATP-dependent phosphorylation of endogenous FYF peptide in a dose dependent manner
effect of compound alone on glucose transport (3T3L1 adipocyte cells; basal, no insulin): activates glucose transport in 3T3L1 cells
efficacy compared with insulin, glucose transport (3T3L1 adipocyte cells; compound alone, relative to maximal dose of insulin (100 nM)): 25-40%
EC50 (3T3L1 adipocyte cells; compound alone, read-out: apparent EC50, stimulation of glucose transport): 20 to 30 µM
EC50 (3T3L1 adipocyte cells; read-out: apparent EC50, glucose transport with sub-maximal insulin, in presence of 2 nM insulin): 8 µM
glucose transport, % of maximal efficacy (100 nM insulin) (3T3L1 adipocyte cells; with 2 nM insulin, compound at 15 μM): 80%
classification of insulin action (insulin receptor [2]): agonists of insulin action
effect on 125I IGF-1 binding (IGF-1 receptors): does not compete for ^125I IGF-1 binding
EC50 in vivo [3]: 15 µmol/kg
dose of peak activity, bi-phasic dose response in vivo [3]: 20 to 40 µmol/kg
effect on blood glucose levels ([3]; 100 μmol/kg, preliminary studies): does not decrease blood glucose levels
efficacy in lowering blood glucose relative to human insulin ([3]; dose of 35 μmol/kg, intra peritoneal): about 25%
effect on 125I IGF-1 binding (IGF-1 receptor): does not compete for ^125I IGF-1 binding to HPPM; also recorded: promotes ^125I IGF-1 binding to HPPM
concentration of maximal 125I insulin binding (insulin receptor [4]): 80 to 100 µM
EC50 (insulin receptor [4]; read-out: apparent EC50 of increase in 125I insulin binding, low micromolar concentrations): 10 to 20 µM
